In patent publication US20020137929A1, “1 - (3-heterocyclylphenyl) isothiourea, -isourea, -guanidine and -amidine herbicidal agents” (Intellectual Property Department, BASF Aktiengesellschaft, priority 1998, published 2002):

Experiments:
[1] = tested on: ECHORC (Watergrass (Calif.)); experiment: Preemergence weed control under flooded paddy conditions; assay type: in vivo, Echinochloa oryzoides; details: rated 3-4 weeks after treatment
How it was run: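 First, seeds or propagules go into the top 0.5 cm of silt loam; next, water is held 1.5 to 3 cm over the soil; then compound (50/50 acetone/water) is pipetted into it at about 0.0313 to 0.500 kg/ha; finally plants are rated visually 0-9 after three to four weeks.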

ORYSAT (Rice, Tebonnet) = experiment: Preemergence herbicidal evaluation; assay type: in vivo, Oryza sativa, (L.) Tebonnet; details: rated 4-5 weeks after treatment
How it was run: (§1)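 Herbicidal effect scored visually, 0-9, at 4 to 5 weeks against a control; compound applied preemergence by aqueous acetone spray to seeded soil at about 0.0156 to 0.500 kg/ha.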

ECHCG (Barnyardgrass) = experiment: Preemergence herbicidal evaluation; assay type: in vivo, Echinochloa crus-galli; details: rated 4-5 weeks after treatment
How it was run: as §1

[2] = tested on: TRZAWR (Wheat, Winter, cv Riband); experiment: Postemergence herbicidal evaluation; assay type: in vivo, Triticum aestivum; details: postemergence
How it was run: (§2)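 Visual 0–9 rating versus control (stand, vigor, malformation, size, chlorosis, overall appearance), taken four to five weeks post-spray. Two-week-old seedlings received roughly 0.0156–0.500 kg/ha active in acetone/water (50/50) with 0.5% TWEEN 20 via nozzle at 40 psi.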

[3] = tested on: TRZAWR (Wheat, Winter, cv Riband); experiment: Preemergence herbicidal evaluation; assay type: in vivo, Triticum aestivum; details: rated 4-5 weeks after treatment
How it was run: as §1

MOOVA (Monochoria) = experiment: Preemergence weed control under flooded paddy conditions; assay type: in vivo, Monochoria vaginalis; details: rated 3-4 weeks after treatment
How it was run: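 Values are visual 0-9 scores against a control for a preemergence application into paddy flood water at about 0.0313 to 0.500 kg/ha. Greenhouse duration was three to four weeks.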

[4] = tested on: IPOHE (Morningglory, Ivyleaf); experiment: Postemergence herbicidal evaluation; assay type: in vivo, Ipomoea hederacea; details: postemergence
How it was run: as §2

[5] = tested on: IPOHE (Morningglory, Ivyleaf); experiment: Preemergence herbicidal evaluation; assay type: in vivo, Ipomoea hederacea; details: rated 4-5 weeks after treatment
How it was run: as §1

SETVI (Foxtail, Green) = experiment: Preemergence herbicidal evaluation; assay type: in vivo, Setaria viridis; details: rated 4-5 weeks after treatment
How it was run: as §1

[6] = tested on: CHEAL (Lambsquarters, Common); experiment: Preemergence herbicidal evaluation; assay type: in vivo, Chenopodium album; details: rated 4-5 weeks after treatment
How it was run: as §1

[7] = tested on: ECHORC (Watergrass (Calif.)); experiment: Postemergence weed control under flooded paddy conditions; assay type: in vivo, Echinochloa oryzoides; details: postemergence weeds, 3-4 weeks after treatment
How it was run: (§3)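 Herbicidal effect is judged by eye on a 0–9 scale versus control, 3–4 weeks after dosing. Dosing is into flood water kept 1.5–3 cm over the soil, at about 0.0313–0.500 kg/ha in aqueous/acetone 50/50 v/v, on 3–5 cm weeds and 1.5–2.5-leaf rice seedlings.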

CYPIR (Rice Flatsedge) = experiment: as above; assay type: in vivo, Cyperus iria; details: postemergence weeds, 3-4 weeks after treatment
How it was run: as §3

ABUTH (Velvetleaf) = experiment: Postemergence herbicidal evaluation; assay type: in vivo, Abutilon theophrasti; details: postemergence
How it was run: as §2

CCOC(=O)CN1C(=O)CN(C)C1=Nc1cc(-n2c(=O)cc(C(F)(F)F)n(C)c2=O)c(F)cc1Cl [Compound 25, Ethyl 2-{{2-chloro-5-[3,6-dihydro-3-methyl-2,6-dioxo-4-(trifluoromethyl)-1(2H)-pyrimidinyl]-4-fluorophenyl}imino}-3-methyl-5-oxo-1-imidazolidineacetate]
Herbicidal rating ECHORC ([1]; 0.0313 kg/ha): 4.0 | Herbicidal rating ECHORC ([1]; 0.0625 kg/ha): 6.0 | Herbicidal rating ECHORC ([1]; 0.1250 kg/ha): 7.0 | Herbicidal rating ECHORC ([1]; 0.2500 kg/ha): 9.0 | Preemergence herbicidal rating ORYSAT (ORYSAT (Rice, Tebonnet); rate 0.0156 kg/ha): 0.0 | Preemergence herbicidal rating ORYSAT (ORYSAT (Rice, Tebonnet); rate 0.0313 kg/ha): 0.0 | ORYSAT preemergence herbicidal rating (ORYSAT (Rice, Tebonnet); rate 0.0625 kg/ha): 0.0 | ORYSAT preemergence herbicidal rating (ORYSAT (Rice, Tebonnet); rate 0.1250 kg/ha): 2.0 | ORYSAT preemergence herbicidal rating (ORYSAT (Rice, Tebonnet); rate 0.2500 kg/ha): 5.0 | Preemergence herbicidal rating ECHCG (ECHCG (Barnyardgrass); rate 0.0156 kg/ha): 0.0 | Preemergence herbicidal rating ECHCG (ECHCG (Barnyardgrass); rate 0.0313 kg/ha): 0.0 | ECHCG preemergence herbicidal rating (ECHCG (Barnyardgrass); rate 0.0625 kg/ha): 0.0 | ECHCG preemergence herbicidal rating (ECHCG (Barnyardgrass); rate 0.1250 kg/ha): 0.0 | ECHCG preemergence herbicidal rating (ECHCG (Barnyardgrass); rate 0.2500 kg/ha): 7.0 | TRZAWR herbicidal rating ([2]; rate 0.0156 kg/ha): 2.0 | TRZAWR herbicidal rating ([2]; rate 0.0313 kg/ha): 3.0 | TRZAWR herbicidal rating ([2]; rate 0.0625 kg/ha): 3.0 | Preemergence herbicidal rating TRZAWR ([3]; rate 0.0156 kg/ha): 0.0 | Preemergence herbicidal rating TRZAWR ([3]; rate 0.0313 kg/ha): 1.0 | TRZAWR preemergence herbicidal rating ([3]; rate 0.0625 kg/ha): 2.0 | TRZAWR preemergence herbicidal rating ([3]; rate 0.1250 kg/ha): 3.0 | TRZAWR preemergence herbicidal rating ([3]; rate 0.2500 kg/ha): 6.0 | Herbicidal rating MOOVA (MOOVA (Monochoria); 0.0313 kg/ha): 9.0 | Herbicidal rating MOOVA (MOOVA (Monochoria); 0.0625 kg/ha): 9.0 | Herbicidal rating MOOVA (MOOVA (Monochoria); 0.1250 kg/ha): 9.0 | Herbicidal rating MOOVA (MOOVA (Monochoria); 0.2500 kg/ha): 9.0 | IPOHE herbicidal rating ([4]; rate 0.0156 kg/ha): 9.0 | IPOHE herbicidal rating ([4]; rate 0.0313 kg/ha): 9.0 | IPOHE herbicidal rating ([4]; rate 0.0625 kg/ha): 9.0 | Preemergence herbicidal rating IPOHE ([5]; rate 0.0156 kg/ha): 0.0 | Preemergence herbicidal rating IPOHE ([5]; rate 0.0313 kg/ha): 0.0 | IPOHE preemergence herbicidal rating ([5]; rate 0.0625 kg/ha): 0.0 | IPOHE preemergence herbicidal rating ([5]; rate 0.1250 kg/ha): 2.0 | IPOHE preemergence herbicidal rating ([5]; rate 0.2500 kg/ha): 5.0 | Preemergence herbicidal rating SETVI (SETVI (Foxtail, Green); rate 0.0156 kg/ha): 0.0 | Preemergence herbicidal rating SETVI (SETVI (Foxtail, Green); rate 0.0313 kg/ha): 0.0 | SETVI preemergence herbicidal rating (SETVI (Foxtail, Green); rate 0.0625 kg/ha): 7.0 | SETVI preemergence herbicidal rating (SETVI (Foxtail, Green); rate 0.1250 kg/ha): 9.0 | SETVI preemergence herbicidal rating (SETVI (Foxtail, Green); rate 0.2500 kg/ha): 9.0 | Preemergence herbicidal rating CHEAL ([6]; rate 0.0156 kg/ha): 7.0 | Preemergence herbicidal rating CHEAL ([6]; rate 0.0313 kg/ha): 9.0 | CHEAL preemergence herbicidal rating ([6]; rate 0.0625 kg/ha): 9.0 | CHEAL preemergence herbicidal rating ([6]; rate 0.1250 kg/ha): 9.0 | CHEAL preemergence herbicidal rating ([6]; rate 0.2500 kg/ha): 9.0 | Herbicidal rating ECHORC ([7]; rate 0.0313 kg/ha): 4.0 | Herbicidal rating ECHORC ([7]; rate 0.0625 kg/ha): 6.0 | Herbicidal rating ECHORC ([7]; rate 0.1250 kg/ha): 7.0 | Herbicidal rating ECHORC ([7]; rate 0.2500 kg/ha): 9.0 | Herbicidal rating CYPIR (CYPIR (Rice Flatsedge); rate 0.0313 kg/ha): 0.0 | Herbicidal rating CYPIR (CYPIR (Rice Flatsedge); rate 0.0625 kg/ha): 0.0 | Herbicidal rating CYPIR (CYPIR (Rice Flatsedge); rate 0.1250 kg/ha): 0.0 | Herbicidal rating CYPIR (CYPIR (Rice Flatsedge); rate 0.2500 kg/ha): 0.0 | ABUTH herbicidal rating (ABUTH (Velvetleaf); rate 0.0156 kg/ha): 9.0 | ABUTH herbicidal rating (ABUTH (Velvetleaf); rate 0.0313 kg/ha): 9.0 | ABUTH herbicidal rating (ABUTH (Velvetleaf); rate 0.0625 kg/ha): 9.0

Cn1c(C(F)(F)F)cc(=O)n(-c2cc(N=C3SCC(=O)N3Cc3ccccc3)c(Cl)cc2F)c1=O [Compound 26]
Herbicidal rating ECHORC ([1]; 0.0313 kg/ha): 7.0 | Herbicidal rating ECHORC ([1]; 0.0625 kg/ha): 9.0 | Herbicidal rating ECHORC ([1]; 0.1250 kg/ha): 9.0 | Herbicidal rating ECHORC ([1]; 0.2500 kg/ha): 9.0 | Preemergence herbicidal rating ORYSAT (ORYSAT (Rice, Tebonnet); rate 0.0156 kg/ha): 0.0 | Preemergence herbicidal rating ORYSAT (ORYSAT (Rice, Tebonnet); rate 0.0313 kg/ha): 0.0 | Preemergence herbicidal rating ORYSAT (ORYSAT (Rice, Tebonnet); rate 0.0625 kg/ha): 0.0 | Preemergence herbicidal rating ORYSAT (ORYSAT (Rice, Tebonnet); rate 0.1250 kg/ha): 0.0 | Preemergence herbicidal rating ORYSAT (ORYSAT (Rice, Tebonnet); rate 0.2500 kg/ha): 0.0 | Preemergence herbicidal rating ECHCG (ECHCG (Barnyardgrass); rate 0.0156 kg/ha): 0.0 | Preemergence herbicidal rating ECHCG (ECHCG (Barnyardgrass); rate 0.0313 kg/ha): 0.0 | Preemergence herbicidal rating ECHCG (ECHCG (Barnyardgrass); rate 0.0625 kg/ha): 0.0 | Preemergence herbicidal rating ECHCG (ECHCG (Barnyardgrass); rate 0.1250 kg/ha): 1.0 | Preemergence herbicidal rating ECHCG (ECHCG (Barnyardgrass); rate 0.2500 kg/ha): 2.0 | TRZAWR herbicidal rating ([2]; rate 0.0156 kg/ha): 1.5 | TRZAWR herbicidal rating ([2]; rate 0.0313 kg/ha): 2.5 | TRZAWR herbicidal rating ([2]; rate 0.0625 kg/ha): 3.5 | Preemergence herbicidal rating TRZAWR ([3]; rate 0.0156 kg/ha): 0.0 | Preemergence herbicidal rating TRZAWR ([3]; rate 0.0313 kg/ha): 0.0 | Preemergence herbicidal rating TRZAWR ([3]; rate 0.0625 kg/ha): 0.0 | Preemergence herbicidal rating TRZAWR ([3]; rate 0.1250 kg/ha): 0.0 | Preemergence herbicidal rating TRZAWR ([3]; rate 0.2500 kg/ha): 1.0 | Herbicidal rating MOOVA (MOOVA (Monochoria); 0.0313 kg/ha): 9.0 | Herbicidal rating MOOVA (MOOVA (Monochoria); 0.0625 kg/ha): 9.0 | Herbicidal rating MOOVA (MOOVA (Monochoria); 0.1250 kg/ha): 9.0 | Herbicidal rating MOOVA (MOOVA (Monochoria); 0.2500 kg/ha): 9.0 | IPOHE herbicidal rating ([4]; rate 0.0156 kg/ha): 9.0 | IPOHE herbicidal rating ([4]; rate 0.0313 kg/ha): 9.0 | IPOHE herbicidal rating ([4]; rate 0.0625 kg/ha): 9.0 | Preemergence herbicidal rating IPOHE ([5]; rate 0.0156 kg/ha): 0.0 | Preemergence herbicidal rating IPOHE ([5]; rate 0.0313 kg/ha): 0.0 | Preemergence herbicidal rating IPOHE ([5]; rate 0.0625 kg/ha): 0.0 | Preemergence herbicidal rating IPOHE ([5]; rate 0.1250 kg/ha): 2.0 | Preemergence herbicidal rating IPOHE ([5]; rate 0.2500 kg/ha): 3.0 | Preemergence herbicidal rating SETVI (SETVI (Foxtail, Green); rate 0.0156 kg/ha): 0.0 | Preemergence herbicidal rating SETVI (SETVI (Foxtail, Green); rate 0.0313 kg/ha): 0.0 | Preemergence herbicidal rating SETVI (SETVI (Foxtail, Green); rate 0.0625 kg/ha): 0.0 | Preemergence herbicidal rating SETVI (SETVI (Foxtail, Green); rate 0.1250 kg/ha): 5.0 | Preemergence herbicidal rating SETVI (SETVI (Foxtail, Green); rate 0.2500 kg/ha): 9.0 | Preemergence herbicidal rating CHEAL ([6]; rate 0.0156 kg/ha): 3.0 | Preemergence herbicidal rating CHEAL ([6]; rate 0.0313 kg/ha): 9.0 | Preemergence herbicidal rating CHEAL ([6]; rate 0.0625 kg/ha): 9.0 | Preemergence herbicidal rating CHEAL ([6]; rate 0.1250 kg/ha): 9.0 | Preemergence herbicidal rating CHEAL ([6]; rate 0.2500 kg/ha): 9.0 | Herbicidal rating ECHORC ([7]; rate 0.0313 kg/ha): 7.0 | Herbicidal rating ECHORC ([7]; rate 0.0625 kg/ha): 9.0 | Herbicidal rating ECHORC ([7]; rate 0.1250 kg/ha): 9.0 | Herbicidal rating ECHORC ([7]; rate 0.2500 kg/ha): 9.0 | Herbicidal rating CYPIR (CYPIR (Rice Flatsedge); rate 0.0313 kg/ha): 2.0 | Herbicidal rating CYPIR (CYPIR (Rice Flatsedge); rate 0.0625 kg/ha): 4.0 | Herbicidal rating CYPIR (CYPIR (Rice Flatsedge); rate 0.1250 kg/ha): 7.0 | Herbicidal rating CYPIR (CYPIR (Rice Flatsedge); rate 0.2500 kg/ha): 9.0 | ABUTH herbicidal rating (ABUTH (Velvetleaf); rate 0.0156 kg/ha): 9.0 | ABUTH herbicidal rating (ABUTH (Velvetleaf); rate 0.0313 kg/ha): 9.0 | ABUTH herbicidal rating (ABUTH (Velvetleaf); rate 0.0625 kg/ha): 9.0
